Test results from US20130310306A1, “HUMAN LACTOFERRIN DERIVED PEPTIDES AND THEIR USE” (PharmaSurgics In Sweden AB, priority 2011, published 2013).

Tests used:
[1] = tested on: TNF-α production in LPS stimulated THP-1 cells; assay: Inhibition of TNF-α production in LPS stimulated THP-1 cells (ELISA); conditions: for TNF-α at 40 μM peptide / TNF-α at 4 μM peptide / TNF-α at 10 μM peptide: mean relative secretion; for TNF-α at 40 μM peptide: stimulated level without peptide = 100%, basal = 0%
[2] = tested on: S. aureus (CCUG 1800); assay: Minimal microbicidal concentration (MMC99) assay, S. aureus; format: cell-based; conditions: 2 hours; for MMC99 μM in 50% SWF: 50% heat inactivated simulated wound fluid
Method: Antimicrobial Activity was Measured as Bactericidal Effect on S. Aureus Using Minimal Microbicidal Concentration, MMC99, Assay)
S. aureus (#1800; CCUG, Gothenburg, Sweden) cultured on blood-agar plates [Columbia agar (Oxoid, Basingstoke, UK) supplemented with 5% defibrinated horse blood (National Veterinary Institute (SVA), Uppsala, Sweden)] were transferred to brain heart infusion broth (3.7% BHI; Difco, BD Diagnostics, Franklin Lakes, N.J., USA) and incubated in a shaker at 250 rpm+37° C. over night. The culture was thereafter be diluted 1:10 in fresh BHI broth and incubated for additional two hours to reach log-phase growth. The bacteria were pelleted and suspended in 1% BHI medium (BHI broth diluted 100 times in ultra-pure water) to a concentration of 10^7 bacteria/ml as estimated by measuring optical density at 600 nm. Peptides were serially diluted by two-fold steps from 160 μM to 1.25 μM in 1% BHI medium. The peptides (100 μl) were thereafter incubated with bacteria (5 μl á 10^7 bact./ml) for 2 hours at +37° C. Drops (5 μl) of the suspension were placed on blood agar plates. The blood agar plates were incubated over night at +37° C. The MMC99 values, i.e. the lowest peptide concentration needed to achieve a 99% reduction of viable bacteria, were recorded (Table 3). The concentration of the bacterial suspension used in the assay was confirmed by viable counts on blood agar plates.
S. aureus (#1800; CCUG, Gothenburg, Sweden) cultured on blood-agar plates [Columbia agar (Oxoid, Basingstoke, UK) supplemented with 5% defibrinated horse blood (National Veterinary Institute (SVA), Uppsala, Sweden)] were transferred to brain heart infusion broth (3.7% BHI; Difco, BD Diagnostics, Franklin Lakes, N.J., USA) and incubated in a shaker at 250 rpm+37° C. over night. The culture was thereafter be diluted 1:10 in fresh BHI broth and incubated for additional two hours to reach log-phase growth. The bacteria were pelleted and suspended in 1% BHI medium (BHI broth diluted 100 times in ultra-pure water) to a final concentration of 10^7 bacteria/ml as estimated by measuring optical density at 600 nm. Peptides were serially diluted by two-fold steps from 400 μM to 0.78 μM in either 1% BHI medium or in 50% heat inactivated simulated wound fluid [SWF, containing 1 part 0.1% peptone (Oxoid, Basingstoke, UK) in saline and 1 part fetal bovine serum, diluted 2 times in ultra-pure water].
The peptides (100 μl) were thereafter incubated with bacteria (5 μl á 10^7 bact./ml) for 2 hours at +37° C. Drops (5 μl) of the suspension were placed on blood agar plates. The blood agar plates were incubated over night at +37° C. The MMC99 values, i.e. the lowest peptide concentration needed to achieve a 99% reduction of viable bacteria were recorded (Table 6). The concentration of the bacterial suspension used in the assay was confirmed by viable counts on blood agar plates.
The antimicrobial effects of the peptide 265 (SEQ ID NO: 27) was analysed by MMC99 (minimal microbicidal concentration) assay against S. aureus (CCUG 1800), MRSA (CCUG 41879), P. aeruginosa (ATCC 15442), E. coli (CCUG 31246), S. pyogenes (CCUG 4207), P. acnes (CCUG 1794T), S. epidermidis (ATCC12228), K. pneumoniae (ATCC 13883), A. baumannii (ATCC 19606), and C. albicans (ATCC 64549). The peptides were purchased from Biopeptide Company (San Diego, Calif., USA) and Bachem AG (Bubendorf, Switzerland) and results are presented in Table 8A and 8B respectively.
Peptide was serially diluted in two different assay medium, 1% BHI medium (brain-heart infusion medium) or 50% heat inactivated simulated wound fluid (SWF), and thereafter incubated with the microorganisms for 2 hours. Drops of the suspension were placed on blood agar plates. The MMC99 values, i.e. the lowest peptide concentration needed to achieve a 99% reduction of viable microorganisms, were recorded. As presented in Table 8, the peptide has the ability to kill microorganisms frequently appearing in infections.

[3] = screen 1, 99% reduction of viable bacteria

Row | Sequence | TNF-α at 40 μM peptide ([1]; screen 2, 40 μM peptide) [%] | TNF-α at 4 μM peptide ([1]; screen 2) [%] | TNF-α at 10 μM peptide ([1]; screen 2) [%] | MMC99 μM in 1% BHI medium ([2]; screen 2) [µM] | MMC99 μM in 50% SWF ([2]; screen 2) [µM] | TNF-α at 40 μM peptide ([1]; screen 1, 40 μM peptide, 6 h) [%] | MMC99 μM in 1% BHI medium [2, 3] [µM] | TNF-α activities at 40 μM ([1]; 40 μM peptide, result in words) | TNF-α activity at higher concentrations ([1]; concentrations higher than 40 μM, result in words)
1 | CFLWRRNMRKVRGSRRRRG [Peptide 276] | 38.8 | 111.0 | 135.3 | 6.25 | 12.5 | – | – | – | –
2 | CFQWKRAMRKVRGPPVSCIKRDS [Peptide 159] | – | – | – | – | – | 60 | 20 | – | –
3 | CFQWKRAMRKVRGSRRRRG [Peptide 155] | – | – | – | – | – | 5 | 10 | – | –
4 | CFQWQRNMRKVRGPPVSCIKR [Peptide 157] | – | – | – | – | – | 153 | 20 | – | –
5 | EATKCFQWQRNMRKVRGPPVSSIKR [Peptide 156] | – | – | – | – | – | 124 | 20 | – | –
6 | FQWKRRKRMRRGSVRRRG [Peptide 266] | 101.1 | – | – | – | – | – | – | – | –
7 | FQWKRRMRKVRGSKKKKG [Peptide 257] | 62.8 | 114.5 | 109.1 | 6.25 | 200 | – | – | – | –
8 | FQWKRRMRKVRGSLRRWG [Peptide 258] | 39.8 | 110.4 | 115.4 | 6.25 | 12.5 | – | – | – | –
9 | FQWKRRMRKVRGSRRRRG [Peptide 127] | – | – | – | – | – | 9 | 5 | – | –
10 | FQWKRRMRKVRSGRRRGR [Peptide 264] | 87.2 | – | – | – | – | – | – | – | –
11 | FQWQRKMRKVRGSRRRRG [Peptide 126] | – | – | – | – | – | 107 | 10 | – | –
12 | FQWQRNMRKVRGPPSRRRRG [Peptide 154] | – | – | – | – | – | 162 | 10 | – | –
13 | FQWQRNMRKVRGPSRRRRG [Peptide 153] | – | – | – | – | – | 159 | 10 | – | –
14 | FQWQRNMRKVRGSRRRRG [Peptide 116] | – | – | – | – | – | 83 | 10 | – | –
15 | FQWQRNMRKVRGSRRRRG [Peptide 150] | – | – | – | – | – | 134 | 10 | – | –
16 | FQWQRNMRKVRGSRRRRG [Peptide 152] | – | – | – | – | – | 110 | 10 | – | –
17 | FQWQRNMRKVRGSRRRRG [Peptide 224] | 113.4 | – | – | 12.5 | 400 | – | – | – | –

Row | Sequence | TNF-α at 40 μM peptide ([1]; screen 2, 40 μM peptide) [%] | TNF-α at 4 μM peptide ([1]; screen 2) [%] | TNF-α at 10 μM peptide ([1]; screen 2) [%] | MMC99 μM in 1% BHI medium ([2]; screen 2) [µM] | MMC99 μM in 50% SWF ([2]; screen 2) [µM] | TNF-α at 40 μM peptide ([1]; screen 1, 40 μM peptide, 6 h) [%] | MMC99 μM in 1% BHI medium [2, 3] [µM] | TNF-α activities at 40 μM ([1]; 40 μM peptide, result in words) | TNF-α activity at higher concentrations ([1]; concentrations higher than 40 μM, result in words)
18 | FQWQRNMRKVRGSRRRRG [Peptide 256] | 100.5 | – | – | 12.5 | 200 | – | – | – | –
19 | FQWQRNMRKVRGSRRRRG [Peptide 282] | 114.8 | – | – | 12.5 | 200 | – | – | – | –
20 | FQWQRNMRKVRGSRRRRG [template peptide, reference compound] | – | – | – | – | – | – | – | almost inactive | active
21 | FRWKRRMRKVRGSRRRQG [Peptide 263] | 61.4 | 93.6 | 100.1 | 6.25 | 100 | – | – | – | –
22 | FWWKKAMKKVKGTRRRRG [Peptide 273] | 52.7 | 86.2 | 78.6 | 6.25 | 12.5 | – | – | – | –
23 | FWWKRAMRKVRGSRRRRG [Peptide 132] | – | – | – | – | – | 18 | 5 | – | –
24 | FWWKRAMRKVRLSRRRRG [Peptide 270] | 23.1 | 96.2 | 71.5 | 6.25 | 12.5 | – | – | – | –
25 | FWWKRAMRKVRNSRRRRG [Peptide 271] | 24.5 | 101.7 | 74.4 | 6.25 | 6.25 | – | – | – | –
26 | GRRRRSFQWKRRMRKVR [Peptide 269] | 66.2 | 115.7 | 113.8 | 6.25 | 200 | – | – | – | –
27 | GRRRRSGRVKRMRRKQWF [Peptide 268] | 74.4 | 114.5 | 129.7 | 6.25 | 200 | – | – | – | –
28 | KQWKRMMRKVFSVRRWFL [Peptide 262] | 12.1 | 79.6 | 45.3 | 6.25 | 6.25 | – | – | – | –
29 | KQWKRWMRKVFVSLRRVG [Peptide 260] | 5.9 | 99.3 | 74.0 | 6.25 | 25 | – | – | – | –
30 | RQWKRRMRKVFHSYRRMG [Peptide 259] | 33.0 | 108.4 | 108.5 | 6.25 | 25 | – | – | – | –
31 | RQWKRVMRKVFGSRWWRG [Peptide 261] | 24.5 | 86.0 | 56.2 | 12.5 | 12.5 | – | – | – | –
32 | VYYKRTARKARGSRRRRG [Peptide 272] | 102.8 | – | – | – | – | – | – | – | –
33 | WFQWKRAMRKVRGSRRRRG [Peptide 130] | – | – | – | – | – | 6 | 5 | – | –
